Measured values taken from patent US20100048403A1, “Method of inducing virus tolerance of plants” (BASF SE, priority 2007, published 2010).

System: Cucumber Green Mottle Mosaic Virus (CGMMV)
Assay: Symptom expression of CGMMV in cucumbers treated 7 days before mechanical inoculation
Format: in vivo
Conditions: cucumber plants, 500 g product in 200 litres water sprayed to run-off 7 days before inoculation
Method: The experiment tested the effect of boscalid (as Filan®) on the symptom expression of CGMMV in cucumbers. Cucumber plants were treated with Filan or water 7 days before mechanical inoculation with CGMMV. Filan® was applied at 500 g in 200 litres water. Sprays were applied as a fine spray to run-off.
The experiment consisted of 5 plants per each treatment, with three replicates arranged randomly after fungicide treatment, but before inoculation. Plants were then inoculated in situ. Plants were mechanically inoculated at the 4-6 true leaf stage. Cucumber leaves showing symptoms and confirmed by CSL as infected with CGMMV were used as the source of inoculum. Several infected leaves were crushed in a plastic bag with a small amount of distilled water to extract the sap. This sap was then gently rubbed onto the second lowest green leaf of each plant in the experiment. Symptoms of CGMMV were assessed at intervals following inoculation.

O=C(Nc1ccccc1-c1ccc(Cl)cc1)c1cccnc1Cl [Boscalid, boscalid]
Number of leaves with symtoms, 8 days after inoculation (Average) (8 days after inoculation, untreated 2.4): 0.8
Number of leaves with symtoms, 33 days after inoculation (Average) (33 days after inoculation, untreated 7.4): 4.4
